We go through one compound from patent US20240109917A1 (ACTELION PHARMACEUTICALS LTD, priority 2020, published 2024).

In assay [1] the target is Tb-labeled inactive PDGFRβ (Homo sapiens (Human), UniProt P09619). Description: PDGFRβ LanthaScreen Assay. Format: binding. The note with it: read-out: PDGFR Lantha IC50.
The target in another assay is PDGFRβ (Rattus norvegicus (Rat), UniProt Q05030). Description: PDGFRβ Cellular Assay (PDGFRb P-Y751 HTRF in A10 cells stimulated with PDGF-BB). Format: cell-based. The conditions noted are these: read-out: PDGFR Cellular IC50. The gist of the method:
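Phospho-Y751 PDGFRβ was measured by HTRF in lysates of A10 rat cells. Cells received compound for 3 hours before PDGF-BB stimulation (100 ng/mL working stock).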

Sequence of PDGFRβ (Q05030 32-1097): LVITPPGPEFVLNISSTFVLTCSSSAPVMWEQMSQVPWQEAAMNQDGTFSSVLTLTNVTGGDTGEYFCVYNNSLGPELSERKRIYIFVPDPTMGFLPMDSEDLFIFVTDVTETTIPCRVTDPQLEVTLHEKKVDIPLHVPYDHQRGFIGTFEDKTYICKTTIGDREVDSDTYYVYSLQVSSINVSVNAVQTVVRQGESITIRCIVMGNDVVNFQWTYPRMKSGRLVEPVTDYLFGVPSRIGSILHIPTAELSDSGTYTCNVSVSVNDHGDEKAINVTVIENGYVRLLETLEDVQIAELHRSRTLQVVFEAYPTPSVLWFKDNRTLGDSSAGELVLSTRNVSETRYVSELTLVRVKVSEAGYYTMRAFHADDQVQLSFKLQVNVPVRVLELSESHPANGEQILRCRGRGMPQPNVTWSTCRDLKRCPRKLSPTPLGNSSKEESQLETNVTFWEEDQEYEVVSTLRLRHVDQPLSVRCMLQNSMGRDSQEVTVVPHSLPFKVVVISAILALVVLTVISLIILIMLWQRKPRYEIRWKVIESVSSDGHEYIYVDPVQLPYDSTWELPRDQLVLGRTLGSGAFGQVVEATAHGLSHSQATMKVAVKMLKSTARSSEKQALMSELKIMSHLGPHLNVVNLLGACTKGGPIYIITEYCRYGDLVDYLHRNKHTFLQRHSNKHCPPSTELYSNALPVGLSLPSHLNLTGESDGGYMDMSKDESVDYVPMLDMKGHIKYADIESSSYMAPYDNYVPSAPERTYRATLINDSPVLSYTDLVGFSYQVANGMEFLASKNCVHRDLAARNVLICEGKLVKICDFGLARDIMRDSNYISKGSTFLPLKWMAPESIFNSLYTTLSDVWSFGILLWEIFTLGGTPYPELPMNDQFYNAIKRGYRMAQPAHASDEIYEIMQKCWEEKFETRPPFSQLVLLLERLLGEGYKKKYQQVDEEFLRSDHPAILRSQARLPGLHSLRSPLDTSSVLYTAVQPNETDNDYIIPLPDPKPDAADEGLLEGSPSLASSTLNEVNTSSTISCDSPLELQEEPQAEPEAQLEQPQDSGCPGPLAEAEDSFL
Sequence of Tb-labeled inactive PDGFRβ (P09619 33-1106): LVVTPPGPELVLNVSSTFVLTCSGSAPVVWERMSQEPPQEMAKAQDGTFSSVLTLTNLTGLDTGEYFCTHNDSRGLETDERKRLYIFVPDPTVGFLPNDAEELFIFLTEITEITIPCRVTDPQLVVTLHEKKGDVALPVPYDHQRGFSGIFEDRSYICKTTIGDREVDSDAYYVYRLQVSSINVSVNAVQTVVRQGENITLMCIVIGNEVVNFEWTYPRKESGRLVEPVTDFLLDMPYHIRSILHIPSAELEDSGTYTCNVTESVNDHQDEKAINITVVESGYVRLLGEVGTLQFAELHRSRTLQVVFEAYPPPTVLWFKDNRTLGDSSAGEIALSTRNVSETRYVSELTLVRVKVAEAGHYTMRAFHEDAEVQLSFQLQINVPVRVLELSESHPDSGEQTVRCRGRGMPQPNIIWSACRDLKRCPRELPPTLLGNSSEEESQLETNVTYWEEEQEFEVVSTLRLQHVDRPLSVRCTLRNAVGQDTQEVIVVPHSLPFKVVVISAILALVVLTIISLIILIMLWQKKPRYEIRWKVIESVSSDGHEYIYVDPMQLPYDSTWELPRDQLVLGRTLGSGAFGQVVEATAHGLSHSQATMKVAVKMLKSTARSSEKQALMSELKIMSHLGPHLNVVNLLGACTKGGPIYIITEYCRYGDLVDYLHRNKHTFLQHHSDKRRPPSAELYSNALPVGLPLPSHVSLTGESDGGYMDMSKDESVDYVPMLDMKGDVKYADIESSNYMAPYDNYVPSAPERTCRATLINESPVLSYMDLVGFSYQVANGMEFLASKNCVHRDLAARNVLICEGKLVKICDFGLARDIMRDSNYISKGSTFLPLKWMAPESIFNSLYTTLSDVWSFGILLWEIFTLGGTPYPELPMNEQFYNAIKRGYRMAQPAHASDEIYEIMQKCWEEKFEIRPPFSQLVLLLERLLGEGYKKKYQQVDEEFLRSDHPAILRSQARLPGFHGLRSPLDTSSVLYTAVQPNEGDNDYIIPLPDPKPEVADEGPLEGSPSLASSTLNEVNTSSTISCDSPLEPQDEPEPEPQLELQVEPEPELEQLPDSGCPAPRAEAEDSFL

For orientation: IC50 means the point on the concentration scale where inhibition reaches its midpoint. In the case of `Cc1ncc(C(=O)NCCN2CCCC23COC3)cc1NC(=O)c1cnn2cc(-c3c(C)nn(C)c3C)sc12` [Example 179, N-(5-((2-(2-oxa-5-azaspiro[3.4]octan-5-yl)ethyl)carbamoyl)-2-methylpyridin-3-yl)-2-(1,3,5-trimethyl-1H-pyrazol-4-yl)pyrazolo[5,1-b]thiazole-7-carboxamide], the IC50 in assay [1] came to 0.0069 µM; at PDGFRβ it was 0.0545 µM.
